Laboratory results from ChEMBL document CHEMBL1201862, “PubChem BioAssay data set” (2004).
The source made the active and inactive calls.

Columns and labels:
[1] = Luminescence Cell-Based Dose Confirmation HTS to Identify Activators of 5'UTR Stem-Loop Driven Alpha-Synuclein mRNA Translation in H4 Neuroglioblastoma Cells. [Related pubchem assays: 1829 (Project Summary), 1814 (Primary HTS)]; format: functional
[2] = Luminescence Cell-Based Dose Response HTS to Identify Activators of Luciferase Translation or Activity in H4 […] Cells. [Related pubchem assays: 1829 (Project Summary), 1814 (Primary HTS)]; format: functional
H4 = test: Luminescence Cell-Based Dose Response HTS to Identify Activators of 5'UTR Stem-Loop Driven Prion Protein mRNA Translation in H4 Neuroglioblastoma Cells. [Related pubchem assays: 1829 (Project Summary), 1814 (Primary HTS)]; format: functional; settings: Homo sapiens
cells [3] = format: functional, cell-based
cells [4] = format: functional, cell-based; remark: listed apart in the source
[5] = HIV-1 AD8 envelope cell-cell fusion blockers – cherry-pick, dose response (AID 652062); format: functional, cell-based;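 further: luciferase signal from cell-cell fusion driven by HIV-1 clade B AD8 Env; potency is for inhibitors of fusion seen as a drop in luminescence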
[6] = blockers of HIV-1 envelope-mediated cell-cell fusion – cherry-pick, dose response (AID 652057); format: functional, cell-based
[7] = blockers of HIV-1 ZM109 envelope-driven cell-cell fusion – HeLa effector, CEM target cells, luciferase, cherry-pick, dose response (AID 652058); format: functional, cell-based;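 further: luciferase signal from HIV-1 Env mediated cell-cell fusion of effector and target cells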
[8] = target: T1, Replicative DNA helicase DnaB (Mycobacterium tuberculosis, UniProt P9WMR3); test: DnaB intein splicing inhibitors, dose response, biochemical, cell-free fluorescence (AID 449749); format: functional
T1 sequence (P9WMR3 whole entry): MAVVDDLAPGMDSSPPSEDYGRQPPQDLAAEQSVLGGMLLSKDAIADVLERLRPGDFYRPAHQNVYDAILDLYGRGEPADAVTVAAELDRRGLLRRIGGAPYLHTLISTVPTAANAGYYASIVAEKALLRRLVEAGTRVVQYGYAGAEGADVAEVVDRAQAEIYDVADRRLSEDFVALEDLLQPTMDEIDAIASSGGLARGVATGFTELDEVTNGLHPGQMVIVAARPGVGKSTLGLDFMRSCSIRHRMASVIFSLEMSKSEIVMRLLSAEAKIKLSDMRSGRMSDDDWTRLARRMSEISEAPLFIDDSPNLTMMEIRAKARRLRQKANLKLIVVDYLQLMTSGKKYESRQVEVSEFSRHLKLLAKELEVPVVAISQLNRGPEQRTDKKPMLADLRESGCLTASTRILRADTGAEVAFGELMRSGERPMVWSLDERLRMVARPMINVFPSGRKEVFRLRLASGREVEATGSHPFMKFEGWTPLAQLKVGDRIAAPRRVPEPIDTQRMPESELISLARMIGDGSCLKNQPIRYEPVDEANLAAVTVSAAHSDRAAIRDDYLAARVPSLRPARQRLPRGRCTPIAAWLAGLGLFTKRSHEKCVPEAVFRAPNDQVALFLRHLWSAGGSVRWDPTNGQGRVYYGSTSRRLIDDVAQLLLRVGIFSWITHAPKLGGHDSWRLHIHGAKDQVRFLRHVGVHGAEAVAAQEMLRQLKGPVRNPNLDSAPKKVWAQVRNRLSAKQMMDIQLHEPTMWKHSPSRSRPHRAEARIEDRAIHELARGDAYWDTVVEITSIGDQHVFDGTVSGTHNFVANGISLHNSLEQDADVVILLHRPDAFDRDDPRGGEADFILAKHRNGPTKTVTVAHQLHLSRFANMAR

Protein RecA = target: T2, Protein RecA (Mycobacterium tuberculosis, UniProt P9WHJ3); test: Fluorescence Cell-Free Homogeneous Dose Retest to Identify Inhibitors of RecA-Intein Splicing Activity. [Related pubchem assays (depositor defined):AID2097, AID2223, AID489010, AID492950]; format: functional
T2 sequence (P9WHJ3 whole entry): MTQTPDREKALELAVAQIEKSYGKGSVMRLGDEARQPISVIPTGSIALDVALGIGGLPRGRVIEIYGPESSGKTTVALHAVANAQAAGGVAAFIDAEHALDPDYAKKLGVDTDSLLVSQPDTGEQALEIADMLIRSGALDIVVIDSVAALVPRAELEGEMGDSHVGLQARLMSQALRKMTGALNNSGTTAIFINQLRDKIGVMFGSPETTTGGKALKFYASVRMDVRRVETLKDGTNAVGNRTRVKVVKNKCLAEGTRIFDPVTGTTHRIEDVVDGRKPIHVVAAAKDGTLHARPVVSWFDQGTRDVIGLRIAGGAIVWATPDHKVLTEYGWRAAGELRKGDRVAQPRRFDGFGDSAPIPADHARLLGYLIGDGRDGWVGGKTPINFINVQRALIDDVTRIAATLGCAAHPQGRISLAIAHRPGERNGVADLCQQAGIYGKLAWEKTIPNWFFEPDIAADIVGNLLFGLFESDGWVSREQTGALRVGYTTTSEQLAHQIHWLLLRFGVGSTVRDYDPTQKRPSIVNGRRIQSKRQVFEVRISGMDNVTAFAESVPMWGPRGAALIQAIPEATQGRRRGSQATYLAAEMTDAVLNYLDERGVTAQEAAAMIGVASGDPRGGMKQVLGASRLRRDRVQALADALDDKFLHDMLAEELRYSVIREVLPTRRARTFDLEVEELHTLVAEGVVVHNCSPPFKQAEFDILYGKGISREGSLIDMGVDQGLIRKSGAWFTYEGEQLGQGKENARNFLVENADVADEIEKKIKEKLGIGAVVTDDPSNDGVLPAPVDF

Protein skinhead-1 = target: T3, Protein skinhead-1 (Caenorhabditis elegans, UniProt P34707); format: functional
T3 sequence (P34707 whole entry): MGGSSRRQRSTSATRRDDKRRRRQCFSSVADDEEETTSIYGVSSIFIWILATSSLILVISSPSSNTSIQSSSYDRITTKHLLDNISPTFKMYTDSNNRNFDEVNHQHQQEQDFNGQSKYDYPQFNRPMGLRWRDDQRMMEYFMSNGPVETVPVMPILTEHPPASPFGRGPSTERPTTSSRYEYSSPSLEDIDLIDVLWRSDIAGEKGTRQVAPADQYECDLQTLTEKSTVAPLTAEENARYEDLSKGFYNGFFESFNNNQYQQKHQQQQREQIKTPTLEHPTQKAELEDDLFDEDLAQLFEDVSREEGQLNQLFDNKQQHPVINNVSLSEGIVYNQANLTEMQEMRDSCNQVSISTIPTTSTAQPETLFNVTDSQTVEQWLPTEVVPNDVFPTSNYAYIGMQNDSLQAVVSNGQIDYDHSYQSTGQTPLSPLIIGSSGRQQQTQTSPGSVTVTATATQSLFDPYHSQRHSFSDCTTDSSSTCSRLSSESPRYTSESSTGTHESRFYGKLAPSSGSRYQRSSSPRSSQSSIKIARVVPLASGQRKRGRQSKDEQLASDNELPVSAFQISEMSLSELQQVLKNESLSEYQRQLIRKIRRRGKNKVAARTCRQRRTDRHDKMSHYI

[9] = target: T4, Rac GTPase-activating protein 1 (Homo sapiens, UniProt Q9H0H5); test: blockers of MgcRacGAP-driven Rac1 GTP hydrolysis – biochemical, ADP Hunter fluorescence, primary and confirmatory, confirmation (AID 624330); format: functional
T4 sequence (Q9H0H5 whole entry): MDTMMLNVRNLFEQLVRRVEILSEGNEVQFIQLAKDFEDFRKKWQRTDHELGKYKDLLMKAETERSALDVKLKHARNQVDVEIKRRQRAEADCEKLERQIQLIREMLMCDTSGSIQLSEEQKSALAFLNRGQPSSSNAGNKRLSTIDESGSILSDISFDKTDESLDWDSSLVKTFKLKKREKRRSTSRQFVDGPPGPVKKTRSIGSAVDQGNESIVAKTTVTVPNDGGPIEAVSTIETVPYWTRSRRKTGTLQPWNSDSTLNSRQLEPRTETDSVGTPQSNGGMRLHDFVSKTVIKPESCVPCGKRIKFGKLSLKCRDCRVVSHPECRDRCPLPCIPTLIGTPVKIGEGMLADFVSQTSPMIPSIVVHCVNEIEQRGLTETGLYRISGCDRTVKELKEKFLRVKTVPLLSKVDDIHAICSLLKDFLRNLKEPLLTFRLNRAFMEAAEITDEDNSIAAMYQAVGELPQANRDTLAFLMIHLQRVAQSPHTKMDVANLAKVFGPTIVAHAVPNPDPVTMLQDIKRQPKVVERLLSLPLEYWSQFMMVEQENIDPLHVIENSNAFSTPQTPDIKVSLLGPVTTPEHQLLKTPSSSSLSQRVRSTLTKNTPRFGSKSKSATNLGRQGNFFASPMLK

[10] = target: T5, Heat shock factor protein 1 (Mus musculus, UniProt P38532); test: decrease of HSF1-responsive luciferase luminescence – cell-based, NIH3T3, dose retest, confirmation (AID 2382); format: functional;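 further: NIH3T3 fibroblasts with HSF1-driven luciferase reporter stressed by proteasome inhibitor MG132; luminescence from HSF1-driven luciferase expression after 8 hours of MG132 stress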
T5 sequence (P38532 whole entry): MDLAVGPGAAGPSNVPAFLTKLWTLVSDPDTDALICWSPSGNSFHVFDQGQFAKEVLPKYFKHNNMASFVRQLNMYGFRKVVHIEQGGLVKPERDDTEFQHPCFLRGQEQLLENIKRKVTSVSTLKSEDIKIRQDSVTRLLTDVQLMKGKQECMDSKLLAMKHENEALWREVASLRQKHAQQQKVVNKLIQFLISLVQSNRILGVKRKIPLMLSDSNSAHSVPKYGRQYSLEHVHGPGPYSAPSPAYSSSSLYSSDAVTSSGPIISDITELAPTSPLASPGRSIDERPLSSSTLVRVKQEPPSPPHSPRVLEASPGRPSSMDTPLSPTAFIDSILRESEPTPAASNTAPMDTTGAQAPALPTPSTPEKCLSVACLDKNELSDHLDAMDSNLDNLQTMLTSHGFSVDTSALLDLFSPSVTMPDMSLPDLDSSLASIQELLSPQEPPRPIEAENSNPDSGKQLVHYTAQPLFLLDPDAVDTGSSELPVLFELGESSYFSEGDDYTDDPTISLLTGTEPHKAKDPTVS

[11] = off-target signal loss in HeLa-CEM21 co-culture – HeLa F-luc CTL cells, cherry-picked, counter-screen for HIV-1 Env fusion inhibitor project, dose response (AID 652040); format: functional, cell-based;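 further: potency for signal decrease marking cytotoxic or nonspecific inhibition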

Structure (SMILES): O=c1c2ccccc2nnn1COc1ccc(Cl)cc1Br
- EC50 [1]: 0.383 µM (active)
- EC50 [2]: 29.7 µM (active)
- EC50 (H4): 15.6 µM (active)

Structure (SMILES): CCOC(=O)CN1C(=N)N(c2nc(NC(C)C)nc(NC(C)C)n2)CC1=O
- EC50 (cells [3]): > 350 µM (not active)
- EC50 (cells [4]): > 350 µM (not active)

Structure (SMILES): COc1ccc(CCN(Cc2cccs2)S(=O)(=O)c2ccc(-n3cnnn3)cc2)cc1OC
- AC50 [5]: 9.27 µM (active)
- AC50 [6]: 12.7 µM (active)
- AC50 [7]: 20.3 µM (active)

Structure (SMILES): CCCCCCn1c(N2CCC(C(N)=O)CC2)nc2c1c(=O)n(C)c(=O)n2C
- AC50 [8]: > 380 µM (inactive)
- EC50 (Protein RecA): > 380 µM (inactive)
- IC50 (Protein skinhead-1): > 100 µM (inactive)

Structure (SMILES): O=C(NCC1CCCO1)c1sc2cc(Cl)ccc2c1Cl (stereo not given)
- EC50 (cells [3]): 66.4 µM (active)
- EC50 (cells [4]): > 350 µM (not active)

Structure (SMILES): Cc1cccc(NC(=O)Cc2noc3ccccc23)c1
- EC50 (cells [3]): 115 µM (active)
- EC50 (cells [4]): > 350 µM (not active)

Structure (SMILES): COCCNC(=O)C(c1ccncc1)N(Cc1ccccc1)C(=O)Cn1nnc2ccccc21 (stereo not given)
- EC50 [1]: 4.27 µM (active)
- EC50 [2]: 15.7 µM (active)
- EC50 (H4): 1.08 µM (active)

Structure (SMILES): CN1C(=O)c2cc(NS(=O)(=O)c3ccccc3F)ccc2OC[C@@H]2O[C@H](CC(=O)NC3Cc4ccccc4C3)CC[C@@H]21
- AC50 [5]: 8.06 µM (active)
- AC50 [6]: 2.89 µM (active)
- AC50 [7]: 2.99 µM (active)

Structure (SMILES): Cc1ccc(F)cc1NC(=O)c1sc2ncn(CC(=O)N3CCN(c4ccccn4)CC3)c(=O)c2c1C
- EC50 [1]: > 120 µM (not active)
- EC50 [2]: > 120 µM (not active)
- EC50 (H4): > 120 µM (not active)

Structure (SMILES): N#Cc1ccccc1OCCCN1CCC(Cc2ccccc2)CC1
- EC50 (cells [3]): > 350 µM (not active)
- IC50 [9]: 132 µM (active)
- EC50 (cells [4]): > 350 µM (not active)

Structure (SMILES): Cc1ccc2nc(-c3ccccc3NC(=O)CCC(=O)O)c(O)nc2c1
- EC50 (cells [3]): > 350 µM (not active)
- EC50 (cells [4]): > 350 µM (not active)
- EC50 [10]: > 195 µM (not active)

Structure (SMILES): Cc1ccc(-c2nc(CS(=O)(=O)CC(=O)NC3CCC(C)CC3)c(C)o2)cc1 (stereo not given)
- EC50 (cells [3]): > 350 µM (not active)
- EC50 (cells [4]): > 350 µM (not active)

Structure (SMILES): CC1CCN(C(=O)c2ncn3c2C(=O)NC[C@@H]3C)CC1
- AC50 [11]: 18 µM (active)
- AC50 [6]: 3.59 µM (active)
- AC50 [7]: 15.7 µM (active)

Structure (SMILES): COc1ccc(S(=O)(=O)N(C)C[C@@H]2Oc3ncc(-c4cc5ccccc5o4)cc3C(=O)N([C@H](C)CO)C[C@@H]2C)cc1
- AC50 [5]: 16.4 µM (active)
- AC50 [6]: 10.5 µM (active)

Structure (SMILES): CN(C[C@H](Cc1ccccc1)N(C[C@H](c1ccccc1)N(CCc1ccccc1)N=O)N=O)N=O
- AC50 [11]: 35.2 µM (active)
- AC50 [6]: 7.62 µM (active)
- AC50 [7]: 9.49 µM (active)

Structure (SMILES): COc1ccc(NC(=O)Nc2ccc3c(c2)C(=O)N([C@H](C)CO)C[C@H](C)[C@H](CN(C)S(=O)(=O)c2ccc(F)cc2)O3)cc1
- AC50 [5]: 27.5 µM (active)
- AC50 [6]: 13 µM (active)
- AC50 [7]: 16.6 µM (active)

Structure (SMILES): CCOc1ccccc1NC(=O)COc1ccc2c(c1)OCO2
- EC50 (cells [3]): > 350 µM (not active)
- EC50 (cells [4]): > 350 µM (not active)

Structure (SMILES): C1CC1Cc1noc(CN2CCN(CC3CC3)CC2)n1
- EC50 (cells [3]): > 350 µM (not active)
- EC50 (cells [4]): > 350 µM (not active)

Structure (SMILES): COc1ccc(C)cc1NC(=O)c1ccc(N(C)S(C)(=O)=O)cc1
- EC50 (cells [3]): > 350 µM (not active)
- EC50 (cells [4]): > 350 µM (not active)

Structure (SMILES): Cc1onc(-c2ccccc2)c1C(=O)OCCOc1cccc(Cl)c1
- AC50 [11]: > 70 µM (inactive)
